Reference: paper PMC9327644, “Optimized peptide extraction method for analysis of antimicrobial peptide Kn2-7/dKn2-7 stability in human serum by LC–MS” (Future Science OA, 2022)
Square brackets hold non-standard residues; d marks the D form. Peptide text beside a SMILES is read from it.

Assay: Time-course stability in 25% human serum by LC-MS
Type: in vitro ADME
Settings: 25% human serum in RPMI media (165 mM MOPS, pH 7.0), 50 μg/ml peptide, 37°C water bath, precipitation with 1% formic acid in ethanol, LC-MS/MS (MRM), internal standard AMP 1018, mean ± SD, n = 3
Procedure: After parameters were optimized to reduce peptide loss during sample processing, the extent of AMP degradation by proteases in human serum was determined via a time-course experiment. Kn2-7 or dKn2-7 (50 μg/ml final concentration) was mixed with RPMI media alone or RPMI containing 25% human serum and incubated at 37°C in a water bath for up to 24 h. At predetermined time points (t = 0, 0.5, 1, 2, 3, 4 and 24 h), a 200 μl aliquot of each sample was collected and mixed with 400 μl of 1% formic acid in ethanol. Samples were incubated on ice for 15 min and centrifuged at 18,000 g for 10 min. Supernatants were transferred to fresh 500 μl tubes and stored at -20°C.
Samples were diluted eight-times with 3% ACN and 0.1% formic acid in water and spiked with internal standard AMP 1018 [15, 16] at 1 μg/ml immediately before LC–MS analysis. A 10 μl aliquot of each sample was analyzed using an Agilent ZORBAX Eclipse XDB 80Å C18 column (2.1 × 50 mm, 5 μm, Agilent, CA, USA) and a Shimadzu LC-20AD system (Shimadzu Corporation, Kyoto, Japan) coupled with a SCIEX API 4000 triple quadrupole mass spectrometer (AB Sciex, MA, USA). […]
MS was conducted in multiple reaction monitoring and positive electrospray ionization mode. […] AMPs Kn2-7/dKn2-7 and 1018 were quantified with the most abundant multiple reaction monitoring transitions m/z 558.7/120.2 and 385.18/239.1, respectively. […]

CC[C@H](C)[C@H](NC(=O)[C@H](CCCNC(=N)N)NC(=O)[C@H](CCCCN)NC(=O)[C@@H](NC(=O)[C@@H](N)Cc1ccccc1)[C@@H](C)CC)C(=O)N[C@@H](C)C(=O)N[C@@H](CCCNC(=N)N)C(=O)N[C@@H](CC(C)C)C(=O)N[C@@H](CC(C)C)C(=O)N[C@@H](CCCNC(=N)N)C(=O)N[C@@H](CCCCN)C(=O)N[C@H](C(=O)N[C@@H](Cc1ccccc1)C(=O)O)[C@@H](C)CC [Kn2-7] (H-FIKRIARLLRKIF-OH)
peptide remaining at 24 h relative to the starting concentration (amount in 0 h sample): 1.0% ± 0.4%

CC[C@@H](C)[C@@H](NC(=O)[C@H](N)Cc1ccccc1)C(=O)N[C@H](CCCCN)C(=O)N[C@H](CCCNC(=N)N)C(=O)N[C@@H](C(=O)N[C@H](C)C(=O)N[C@H](CCCNC(=N)N)C(=O)N[C@H](CC(C)C)C(=O)N[C@H](CC(C)C)C(=O)N[C@H](CCCNC(=N)N)C(=O)N[C@H](CCCCN)C(=O)N[C@@H](C(=O)N[C@H](Cc1ccccc1)C(=O)O)[C@H](C)CC)[C@H](C)CC [dKn2-7] (H-[dF][dI][dK][dR][dI][dA][dR][dL][dL][dR][dK][dI][dF]-OH)
peptide remaining at 24 h relative to the starting concentration (amount in 0 h sample): 78.5% ± 2.7%
